What all share (assay type): in vivo
Test [1] deals with wild oat (AVEFA, Avena fatua). Nature of the test: Test F mixtures with safener cloquintocet-mexyl, pre-/postemergence plant response. The settings on record: for AVEFA Obsd. (observed effect) plant response rating, scale 0 to 100: applied alone. The text has this:
(§1) This test evaluated the effect of mixtures of Compound 3, Compound 11, or Compound 12 with the commercial crop safener cloquintocet-mexyl on three plant species. Seeds of test plants consisting of winter wheat (TRZAW, Triticum aestivum), winter barley (HORVX, Hordeum vulgare), and wild oat (AVEFA, Avena fatua) (a weed) were planted into a blend of loam soil and sand and treated preemergence with a directed soil spray using test chemicals formulated in a non-phytotoxic solvent mixture that included a surfactant. At the same time, plants selected from these crop and weed species were treated with postemergence applications of the test chemicals formulated in the same manner. Plants ranged in height from 2 to 18 cm (1- to 4-leaf stage) for postemergence treatments.
(§2) Plants were grown in a greenhouse using supplemental lighting to maintain a photoperiod of about 16 hours; daytime and nighttime temperatures were about 24-30° C. and 19-21° C., respectively. Balanced fertilizer was applied through the watering system. Treatments consisted of Compound 3, Compound 11, or Compound 12 and the above mentioned safener alone and in combination using a spray volume of 457 L/ha. Each treatment was replicated three times. Treated plants and controls were maintained in a greenhouse for 14 to 21 days, after which time all treated plants were compared to controls and visually evaluated. Plant response ratings were calculated as the means of the three replicates and are summarized in Tables F1 to F6, and are based on a scale of 0 to 100 where 0 is no effect and 100 is complete control. Because cloquintocet-mexyl alone caused no injury at the rates tested, the expected effect of a mixture of Compound 3 with cloquintocet-mexyl is the same as the observed effect of Compound 3 applied alone.

In test [2] the test system is winter barley (HORVX, Hordeum vulgare). The description is as above. The following applies: for HORVX Obsd. (observed effect) plant response rating, scale 0 to 100: applied alone.
From the text: as §1, §2

Test [3] has as its system winter wheat (TRZAW, Triticum aestivum). The description is as above. The settings on record: for TRZAW Obsd. (observed effect) plant response rating, scale 0 to 100: applied alone.
From the text: as §1, §2

For test [4], the system named is wild oat (AVEFA, Avena fatua). Nature of the test: Test G mixtures of Compound 26 with crop safeners, postemergence plant response. The settings on record: applied alone, 125 g a.i./ha. As to the method:
(§3) This test evaluated the effect of mixtures of Compound 26 with commercial crop safeners cloquintocet-mexyl, mefenpyr-diethyl, and fenchlorazole-ethyl on three plant species. Seeds of winter wheat (TRZAW, Triticum aestivum), winter barley (HORVX, Hordeum vulgare), and wild oat (AVEFA, Avena fatua) (a weed) were planted into a silt loam soil. Plants from these seeds were treated postemergence using test chemicals formulated in a non-phytotoxic solvent mixture that included a surfactant. Plants ranged in height from 6 to 10 cm (2- to 3-leaf stage).
(§4) Plants were grown in a greenhouse using supplemental lighting to maintain a photoperiod of about 14 hours; daytime and nighttime temperatures were about 22-26° C. and 15-19° C., respectively. Balanced fertilizer was applied through the watering system. Treatments consisted of Compound 26 and the above mentioned safeners alone and in combination using a spray volume of 281 L/ha. Each treatment was replicated four times. Treated plants and controls were maintained in a greenhouse for 15 days, after which time all treated plants were compared to controls and visually evaluated. Plant response ratings were calculated as the means of the four replicates based on a scale of 0 to 100 where 0 is no effect and 100 is complete control and are summarized in Tables G1 to G3. Because the safeners alone caused no injury at the rates tested, the expected effect of a mixture of Compound 26 with a safener is the same as the observed effect of Compound 26 alone.
(§5) The highest application rate of each safener was tested alone to confirm the absence of herbicidal activity on the test species when appled postemergence at 125 g ai/ha. Therefore, an extrapolated result of zero for each safener alone at 16, 31, or 62 g ai/ha was used to calculate the mixture response of Compound 26 and these safener application rates.

The subject of test [5] is winter barley (HORVX, Hordeum vulgare). Described as above. The following applies: applied alone, 125 g a.i./ha. As to the method:
as §3, §4, §5

In test [6] the test system is winter wheat (TRZAW, Triticum aestivum). The test is described as above. The settings on record: applied alone, 125 g a.i./ha. As to the method: as §3, §4, §5

Consider `CCCCCC(C)OC(=O)COc1ccc(Cl)c2cccnc12` (stereo not drawn) [cloquintocet-mexyl, reference compound], for which the “AVEFA Obsd. (observed effect) plant response rating, scale 0 to 100” value is on record as 0 in test [1] (postemergence, 4 g a.i./ha); 0 in test [1] (postemergence, 8 g a.i./ha); 0 in test [1] (preemergence, 4 g a.i./ha); 0 in test [1] (preemergence, 8 g a.i./ha); 0 in test [4]. The “plant response (injury), safener alone” value in test [1] (wild oat, safener alone at the rates tested, pre- and postemergence, 14 to 21 days) is “no injury”; in test [2] (winter barley, safener alone at the rates tested, pre- and postemergence, 14 to 21 days) it was “no injury”; in test [3] (winter wheat, safener alone at the rates tested, pre- and postemergence, 14 to 21 days), “no injury”. Moreover, the “HORVX Obsd. (observed effect) plant response rating, scale 0 to 100” value is reported as 0 in test [2] (postemergence, 4 g a.i./ha); 0 in test [2] (postemergence, 8 g a.i./ha); 0 in test [2] (preemergence, 4 g a.i./ha); 0 in test [2] (preemergence, 8 g a.i./ha); 0 in test [5]. The “TRZAW Obsd. (observed effect) plant response rating, scale 0 to 100” value in test [3] (postemergence, 4 g a.i./ha) was determined as 0; in test [3] (postemergence, 8 g a.i./ha), 0; in test [3] (preemergence, 4 g a.i./ha), 0; in test [3] (preemergence, 8 g a.i./ha), 0; in test [6] it was 0.

For `CCOC(=O)c1nc(C(Cl)(Cl)Cl)n(-c2ccc(Cl)cc2Cl)n1` [fenchlorazole-ethyl], the “AVEFA Obsd. (observed effect) plant response rating, scale 0 to 100” value in test [4] is given as 0. The “HORVX Obsd. (observed effect) plant response rating, scale 0 to 100” value in test [5] was 0. Also, the “TRZAW Obsd. (observed effect) plant response rating, scale 0 to 100” value in test [6] is given as 0.

`CCOC(=O)C1=NN(c2ccc(Cl)cc2Cl)C(C)(C(=O)OCC)C1` (stereo not drawn) [mefenpyr-diethyl]: the “AVEFA Obsd. (observed effect) plant response rating, scale 0 to 100” value in test [4] was determined as 0. Further, in test [5], the “HORVX Obsd. (observed effect) plant response rating, scale 0 to 100” value was 0. The “TRZAW Obsd. (observed effect) plant response rating, scale 0 to 100” value in test [6] came to 0.

Values taken from US20100267561A1, “HERBICIDAL PYRIDAZINONE DERIVATIVES” (priority 2007, published 2010).
